Source: patent publication US11597746B2, “Cyclic dinucleotides as sting agonists” (JANSSEN BIOTECH, INC., priority 2018, dated 2023)

Columns and labels:
[1] = system: human STING pathway in THP1-ISG cells; experiment: STING human cell reporter assay; format: cell-based; conditions: IRF-inducible SEAP reporter, 24 h
Description: STING Human Cell Reporter Assay
Agonism of the human STING pathway is assessed in THP1-ISG cells (Invivogen, cat #thp-isg) derived from human THP1 monocyte cell line by stable integration of an interferon regulatory factor (IRF)-inducible SEAP reporter construct. THP1-Blue ISG cells express a secreted embryonic alkaline phosphatase (SEAP) reporter gene under the control of an ISG54 minimal promoter in conjunction with five interferon (IFN)-stimulated response elements. As a result, THP1-Blue ISG cells allow the monitoring of IRF activation by determining the activity of SEAP. The levels of IRF-induced SEAP in the cell culture supernatant are readily assessed with alkaline phosphatase detection medium, a SEAP detection reagent. These cells are resistant to Zeocin. 2′3′cGAMP was used as a positive control in this assay. To run the assay, 60,000 cells were dispensed in 30 μL/well of a white, opaque bottom tissue culture treated 384-well plate.
Test compounds were added in a volume of 10 μL (1% DMSO final concentration). Compounds are initially prepared in 100% DMSO, spotted on an intermediate dilution plate and then diluted in media prior to transfer. The assay was incubated for 24 h at 37° C., 5% CO2 then plates were centrifuged at 1200 rpm (120×g) for 5 min. After final incubation, 90 μL of alkaline phosphatase detection medium-substrate was added to each well of a new 384-well clear plate and 10 μL of the cell supernatant was transferred from the assay plate to the new alkaline phosphatase detection medium-plate using a Biomek FX and mixed 4 times.

human STING = human STING (Homo sapiens (Human), UniProt Q86WV6, H232R); experiment: STING SPA binding assay; conditions: for IC50: displacement of [3H]-2′3′-cGAMP from biotinylated recombinant STING (residues 139-379, H232R), read-out: hSTING SPA IC50
Sequence of human STING (Q86WV6 139-379 H232R): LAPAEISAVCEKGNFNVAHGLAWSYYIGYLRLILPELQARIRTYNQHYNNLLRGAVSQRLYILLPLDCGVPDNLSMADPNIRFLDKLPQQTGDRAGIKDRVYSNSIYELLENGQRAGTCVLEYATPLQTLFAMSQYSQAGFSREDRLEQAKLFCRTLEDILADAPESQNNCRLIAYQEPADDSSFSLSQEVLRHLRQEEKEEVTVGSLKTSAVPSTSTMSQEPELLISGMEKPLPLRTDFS

With `Nc1ncnc2c1ncn2[C@@H]1O[C@@H]2CNS(=O)(=O)O[C@H]3[C@@H](F)[C@H](n4cnc5c(N)ncnc54)O[C@@H]3CO[P@](=O)(S)O[C@H]2[C@H]1F` (single isomer, unassigned) [Compound 3] the EC50 [1] was 0.54 µM.
`Nc1nc2c(ncn2[C@@H]2O[C@@H]3CNS(=O)(=O)O[C@H]4[C@H](F)[C@H](n5cnc6c(N)ncnc65)O[C@@H]4CO[P@@](=O)(S)O[C@H]3[C@H]2F)c(=O)[nH]1` (single isomer, unassigned) [Compound 16-R] showed an EC50 [1] of 1.83 µM.
Work on `Nc1nc2c(ncn2[C@@H]2O[C@@H]3CNS(=O)(=O)O[C@H]4[C@H](F)[C@H](n5cnc6c(N)ncnc65)O[C@@H]4CO[P@](=O)(S)O[C@H]3[C@H]2F)c(=O)[nH]1` (single isomer, unassigned) [Compound 16-S] yielded an EC50 [1] of 0.0046 µM.
`Nc1nc2c(ncn2[C@@H]2O[C@@H]3CO[P@@](=O)(S)O[C@H]4[C@@H](F)[C@H](n5cnc6c(N)ncnc65)O[C@@H]4CNS(=O)(=O)O[C@H]3[C@H]2F)c(=O)[nH]1` (single isomer, unassigned) [Compound 18-R] gave an EC50 [1] of 0.093 µM.
`Nc1nc2c(ncn2[C@@H]2O[C@@H]3CO[P@](=O)(S)O[C@H]4[C@@H](F)[C@H](n5cnc6c(N)ncnc65)O[C@@H]4CNS(=O)(=O)O[C@H]3[C@H]2F)c(=O)[nH]1` (single isomer, unassigned) [Compound 18-S] showed an EC50 [1] of 21.1 µM.
Work on `Nc1ncnc2c1ncn2[C@@H]1O[C@@H]2CO[P@@](=O)(S)O[C@H]3[C@@H](F)[C@H](n4cnc5c(=O)[nH]cnc54)O[C@@H]3COS(=O)(=O)O[C@H]2[C@H]1F` (single isomer, unassigned) [Compound 22-R] yielded an EC50 [1] of 0.029 µM.
`Nc1ncnc2c1ncn2[C@@H]1O[C@@H]2CO[P@](=O)(S)O[C@H]3[C@@H](F)[C@H](n4cnc5c(=O)[nH]cnc54)O[C@@H]3COS(=O)(=O)O[C@H]2[C@H]1F` (single isomer, unassigned) [Compound 22-S] showed an EC50 [1] of 0.097 µM.
`Nc1ncnc2c1ncn2[C@@H]1O[C@@H]2CO[P@@](=O)(S)O[C@H]3[C@@H](F)[C@H](n4cnc5c(=O)[nH]cnc54)O[C@@H]3CNS(=O)(=O)O[C@H]2[C@H]1F` (single isomer, unassigned) [Compound 31-R] gave an EC50 [1] of 0.93 µM.
Molecule `Nc1ncnc2c1ncn2[C@@H]1O[C@@H]2CO[P@](=O)(S)O[C@H]3[C@@H](F)[C@H](n4cnc5c(=O)[nH]cnc54)O[C@@H]3CNS(=O)(=O)O[C@H]2[C@H]1F` (single isomer, unassigned) [Compound 31-S] has an EC50 [1] of 0.97 µM.
`Nc1nc2c(ncn2[C@@H]2O[C@@H]3CO[P@@](=O)(S)O[C@H]4[C@@H](F)[C@H](n5cnc6c(N)ncnc65)O[C@@H]4CNS(=O)(=O)O[C@H]3[C@@H]2F)c(=O)[nH]1` (single isomer, unassigned) [Compound 34-R] showed an EC50 [1] of 23.7 µM.
`Nc1nc2c(ncn2[C@@H]2O[C@@H]3CO[P@](=O)(S)O[C@H]4[C@@H](F)[C@H](n5cnc6c(N)ncnc65)O[C@@H]4CNS(=O)(=O)O[C@H]3[C@@H]2F)c(=O)[nH]1` (single isomer, unassigned) [Compound 34-S] was tested, and the EC50 [1] was 47.7 µM.
`Nc1ncnc2c1ncn2[C@@H]1O[C@@H]2CNS(=O)(=O)O[C@H]3[C@@H](F)[C@H](n4cnc5c(N)ncnc54)O[C@@H]3COP(=O)(O)O[C@H]2[C@H]1F` [Compound 1] was tested, and the EC50 [1] was 0.16 µM.
With `Nc1ncnc2c1ncn2[C@@H]1O[C@@H]2CNS(=O)(=O)O[C@H]3[C@@H](F)[C@H](n4cnc5c(N)ncnc54)O[C@@H]3CO[P@@](=O)(S)O[C@H]2[C@H]1F` [Compound 2] the EC50 [1] was 0.012 µM.
With `CO[C@@H]1[C@@H]2OS(=O)(=O)NC[C@H]3O[C@@H](n4cnc5c(N)ncnc54)[C@H](F)[C@@H]3OP(=O)(O)OC[C@H]2O[C@H]1n1cnc2c(=O)[nH]c(N)nc21` [Compound 4] the EC50 [1] was 64.1 µM.
For `Nc1ncnc2c1ncn2[C@@H]1O[C@@H]2COP(=O)(O)O[C@H]3C[C@H](n4cnc5c(N)ncnc54)O[C@@H]3CNS(=O)(=O)O[C@H]2[C@H]1F` [Compound 6], the EC50 [1] was 2.94 µM.
`Nc1nc2c(ncn2[C@@H]2O[C@@H]3COP(=O)(O)O[C@H]4[C@@H](O)[C@H](n5cnc6c(N)ncnc65)O[C@@H]4CNS(=O)(=O)O[C@H]3[C@H]2F)c(=O)[nH]1` [Compound 9] showed an EC50 [1] of 6.24 µM.
`Nc1nc2c(ncn2[C@@H]2O[C@@H]3CNS(=O)(=O)O[C@H]4[C@H](F)[C@H](n5cnc6c(N)ncnc65)O[C@@H]4COP(=O)(O)O[C@H]3[C@H]2F)c(=O)[nH]1` [Compound 13] gave an EC50 [1] of 0.02 µM.
In the case of `Nc1nc2c(ncn2[C@@H]2O[C@@H]3CO[P@@](=O)(S)O[C@H]4[C@@H](O)[C@H](n5cnc6c(N)ncnc65)O[C@@H]4CNS(=O)(=O)O[C@H]3[C@H]2F)c(=O)[nH]1` [Compound 14-R], the EC50 [1] is reported as 1.83 µM.
In the case of `Nc1nc2c(ncn2[C@@H]2O[C@@H]3CO[P@](=O)(S)O[C@H]4[C@@H](O)[C@H](n5cnc6c(N)ncnc65)O[C@@H]4CNS(=O)(=O)O[C@H]3[C@H]2F)c(=O)[nH]1` [Compound 14-S], the EC50 [1] is reported as > 100 µM.
For `COc1ccc(CO[C@@H]2[C@@H]3OS(=O)(=O)NC[C@H]4O[C@@H](n5cnc6c(N)ncnc65)[C@H](F)[C@@H]4OP(=O)(O)OC[C@H]3O[C@H]2n2cnc3c(N)ncnc32)cc1` [Compound 15-R], the EC50 [1] was > 100 µM and the IC50 (human STING) was > 100 µM.
`Nc1ncnc2c1ncn2[C@@H]1O[C@@H]2CNS(=O)(=O)O[C@H]3[C@@H](F)[C@H](n4cnc5c(=O)[nH]cnc54)O[C@@H]3CO[P@@](=O)(S)O[C@H]2[C@H]1F` [Compound 17-R] showed an EC50 [1] of 0.98 µM.
Molecule `Nc1ncnc2c1ncn2[C@@H]1O[C@@H]2CNS(=O)(=O)O[C@H]3[C@@H](F)[C@H](n4cnc5c(=O)[nH]cnc54)O[C@@H]3CO[P@](=O)(S)O[C@H]2[C@H]1F` [Compound 17-S] has an EC50 [1] of 4.23 µM.
In the case of `Nc1ncnc2c1ncn2[C@@H]1O[C@@H]2CNS(=O)(=O)O[C@H]3[C@@H](F)[C@H](n4cnc5c(N)ncnc54)O[C@@H]3CO[P@@](=O)(S)O[C@H]2[C@H]1F` [Compound 20-R], the EC50 [1] is reported as 0.35 µM.
`Nc1ncnc2c1ncn2[C@@H]1O[C@@H]2CNS(=O)(=O)O[C@H]3[C@@H](F)[C@H](n4cnc5c(N)ncnc54)O[C@@H]3CO[P@](=O)(S)O[C@H]2[C@H]1F` [Compound 20-S] gave an EC50 [1] of 61.9 µM.
In the case of `Nc1ncnc2c1ncn2[C@@H]1O[C@@H]2COP(=O)(O)O[C@H]3[C@@H](F)[C@H](n4cnc5c(=O)[nH]cnc54)O[C@@H]3CNS(=O)(=O)O[C@H]2[C@H]1F` [Compound 24], the EC50 [1] is reported as 0.07 µM.
With `Nc1nc2c(ncn2[C@@H]2O[C@@H]3COP(=O)(O)O[C@H]4[C@@H](F)[C@H](n5cnc6c(N)ncnc65)O[C@@H]4CNS(=O)(=O)O[C@H]3[C@@H]2F)c(=O)[nH]1` [Compound 26] the EC50 [1] was 0.03 µM.
`Nc1ncnc2c1ncn2[C@H]1C[C@@H]2NS(=O)(=O)OC[C@H]3O[C@@H](n4cnc5c(=O)[nH]cnc54)[C@H](F)[C@@H]3OP(=O)(O)OC[C@H]2O1` [Compound 28] gave an EC50 [1] of 0.73 µM.
`Nc1ncnc2c1ncn2[C@@H]1O[C@@H]2CNS(=O)(=O)O[C@H]3C[C@H](n4cc(F)c5c(N)ncnc54)O[C@@H]3COP(=O)(O)O[C@H]2[C@H]1F` [Compound 29] was tested, and the EC50 [1] was > 100 µM.
With `Nc1ncnc2c1ncn2[C@@H]1O[C@@H]2CNS(=O)(=O)O[C@H]3C[C@H](n4cnc5cc(Cl)c(Cl)cc54)O[C@@H]3COP(=O)(O)O[C@H]2[C@H]1F` [Compound 32] the EC50 [1] was 0.18 µM.
For `Nc1ncnc2c1ncn2[C@@H]1O[C@@H]2CNS(=O)(=O)O[C@H]3C[C@H](n4cnc5cncnc54)O[C@@H]3COP(=O)(O)O[C@H]2[C@H]1F` [Compound 33], the EC50 [1] was 0.73 µM.
With `Nc1ncnc2c1ncn2[C@@H]1O[C@@H]2CNS(=O)(=O)O[C@H]3[C@H]4OO[C@]3(CO[P@@](=O)(S)O[C@H]2[C@H]1F)O[C@H]4n1cnc2c(N)ncnc21` [Compound 37-R] the EC50 [1] was 0.88 µM.
Molecule `Nc1ncnc2c1ncn2[C@@H]1O[C@@H]2CNS(=O)(=O)O[C@H]3[C@H]4OO[C@]3(CO[P@](=O)(S)O[C@H]2[C@H]1F)O[C@H]4n1cnc2c(N)ncnc21` [Compound 37-S] has an EC50 [1] of 0.64 µM.
`Nc1ncnc2c1ncn2[C@@H]1O[C@@H]2CNS(=O)(=O)O[C@H]3C[C@H](n4ncc5c(=O)[nH]cnc54)O[C@@H]3COP(=O)(O)O[C@H]2[C@H]1F` [Compound 39] was tested, and the EC50 [1] was > 100 µM.
Work on `Nc1ncnc2c1ncn2[C@@H]1O[C@@H]2CNS(=O)(=O)O[C@H]3C[C@H](n4nnc5c(=O)[nH]cnc54)O[C@@H]3COP(=O)(O)O[C@H]2[C@H]1F` [Compound 42] yielded an EC50 [1] of 100 µM.
Molecule `Nc1ncnc2c1ncn2[C@@H]1O[C@@H]2CNS(=O)(=O)O[C@H]3C[C@H](n4cnc5c(=O)[nH]ncc54)O[C@@H]3COP(=O)(O)O[C@H]2[C@H]1F` [Compound 43] has an EC50 [1] of 0.73 µM.
Molecule `Nc1nc(N)c2ncn([C@@H]3O[C@@H]4COP(=O)(O)O[C@H]5[C@@H](F)[C@H](n6cnc7c(N)ncnc76)O[C@@H]5CNS(=O)(=O)O[C@H]4[C@H]3F)c2n1` [Compound 44] has an EC50 [1] of 2.65 µM.
For `Nc1nc2c(ncn2[C@@H]2O[C@@H]3COP(=O)(O)O[C@H]4[C@@H](F)[C@H](n5cnc6c(N)ncnc65)O[C@@H]4CNS(=O)(=O)O[C@H]3[C@H]2OCc2ccccc2)c(=O)[nH]1` [Compound 46], the EC50 [1] was > 100 µM and the IC50 (human STING) was > 100 µM.
`Nc1ncnc2c1ncn2[C@@H]1O[C@@H]2CNS(=O)(=O)O[C@H]3[C@@H](F)[C@H](n4cnc5c(N)ncnc54)O[C@@H]3CNS(=O)(=O)O[C@H]2[C@H]1F` [Compound 47] was tested, and the EC50 [1] was 0.29 µM.
With `Nc1nc2c(ncn2[C@@H]2O[C@@H]3COP(=O)(O)O[C@H]4[C@@H](O)[C@H](n5cnc6c(=O)[nH]c(N)nc65)O[C@@H]4COP(=O)(O)O[C@H]3[C@H]2O)c(=O)[nH]1` [cyclic-di-GMP, reference compound] the “values in STING SPA binding assay” value (human STING; natural ligand) was “within the expected range”.
